The source of these data is paper PMC5882690, “Mechanical characteristics of beta sheet-forming peptide hydrogels are dependent on peptide sequence, concentration and buffer composition” (Royal Society Open Science, 2018).

Where a SMILES comes first, the peptide text is derived from it. [ ]: non-standard residue; d: D form. Orn = NCCC[C@H](N)C(=O)O

For data set [1] the following is noted: cited from earlier work. The source says: The topographical structure of SAP hydrogels is important for the three-dimensional arrangement of cells within scaffolds. Zhang et al. state that the fibres of SAP hydrogels resemble the nanometre scale of natural polymer networks and thus allow three-dimensional cell growth. […] (figure 1). […] Moreover, they observed the formation fibre entanglements with diameters of 30 nm. The phenomenon of fibril clustering was also reported by Zhang et al. for the peptides KFE8 and KLD12, characterized by a typical single fibre width of 7 nm and thicker diameters for the bundles of fibres.

Data set [2] concerns the target T1, human neutrophil elastase (Homo sapiens, UniProt P08246).
T1 construct: purchased Innovative Research, USA
T1 sequence (P08246 30-267): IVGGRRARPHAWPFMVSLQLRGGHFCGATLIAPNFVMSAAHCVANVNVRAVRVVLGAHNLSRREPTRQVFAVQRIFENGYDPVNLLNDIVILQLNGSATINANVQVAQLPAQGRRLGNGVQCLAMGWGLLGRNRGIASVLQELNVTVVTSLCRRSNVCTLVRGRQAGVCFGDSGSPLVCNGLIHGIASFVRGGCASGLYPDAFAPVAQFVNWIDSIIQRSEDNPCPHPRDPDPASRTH
The experiment in a line: SAP hydrogel degradation by human neutrophil elastase. It is filed as in vitro ADME. To be noted: human neutrophil elastase 100 µg ml^-1 (86 units ml^-1) in PBS, 37°C, 5% CO2, 20 mg ml^-1 P11-4, 15 mg ml^-1 others, Qubit Protein Assay, mean ± SD, n = 3. On the procedure: SAP hydrogel dissolution and degradation properties of the peptides in the presence and absence of neutrophilic elastase and microorganisms were measured by determining the peptide content of the supernatant. Therefore, SAPs were assembled in PBS at concentrations of 20 mg ml^−1 for P11-4 and 15 mg ml^−1 for P11-8, P11-13/14 and P11-28/29. The assay was performed in a 96-well plate with gel volumes of 100 µl well^−1. 86 units ml^−1 elastase (Innovative Research, USA) (100 µg ml^−1) were added to the assembled peptides in PBS solution. After 24 h incubation at 37°C and 5% CO2, 10 µl of the supernatant was sterilely removed after 24 and 168 h and measured indirectly by monomeric peptide concentration in the supernatant using the Qubit® Protein Assay (Q33211; Thermo Fisher; fluorescence at 485/590 nm) and transferred back for the remainder of the experiment allowing peptide hydrogel degradation measurement without disturbing the hydrogel to buffer fluid balance. The measurements are based on the fact that degraded peptides cause disassembly of the fibrils, as assembly rules are no longer given, resulting in an increase in monomeric SAP in solution. SAP concentrations were calculated based on respective peptide standard curves. For data analysis, SAP concentrations measured in the supernatant were calculated as a percentage of the specific starting concentrations of each peptide system. Statistical analysis was done using a two-way ANOVA followed by Sidak's multiple comparison test.

Turning to KLD12 [reference compound], in data set [1] (literature), the “typical single fibre width” value is 7 nm.

For the molecule `CC(=O)N[C@@H](CCC(N)=O)C(=O)N[C@@H](CCC(N)=O)C(=O)N[C@@H](CCCNC(=N)N)C(=O)N[C@@H](Cc1ccccc1)C(=O)N[C@@H](CCCN)C(=O)N[C@@H](Cc1c[nH]c2ccccc12)C(=O)N[C@@H](CCCN)C(=O)N[C@@H](Cc1ccccc1)C(=O)N[C@@H](CCC(=O)O)C(=O)N[C@@H](CCC(N)=O)C(=O)N[C@@H](CCC(N)=O)C(N)=O` [P11-8, CH3CO-QQRFOWOFEQQ-NH2] (Ac-QQRF[Orn]W[Orn]FEQQ-NH2), the “relative peptide amount in supernatant (% of peptide starting concentration)” value in data set [2] (1 d) came out at 10.4± 3.9%; in data set [2] (7 d), 10.4± 1.3%.

As to RADA16 [reference compound], the fibre diameter entry in data set [1] (literature value) is “approximately 10 nm”.
